# Reference: publication PMC3666986 (Clinical Medicine Insights. Pediatrics, 2010)
# “Also recorded” adds a separate entry of the source. Read-outs that look alike come from different tables or passages of the source.
# Assays:
# [1] = type: in vivo, human; details: for systemic accumulation: once daily administration of ciclesonide to children, with or without spacer; for time serum concentration detectable/observed after inhalation: present study, treatment not specified (discussion); for AUC: AUCτ, des-CIC in serum, Day 7, τ 24 h, mean ± SEM, N 29
# [2] = Safety and tolerability monitoring; type: in vivo, human
# Pulmonary function tests = type: in vivo, human
# [3] = cited from earlier work
# [4] = cited from earlier work; remark: listed apart in the source
# [5] = healthy subjects and patients with asthma; cited from earlier work
# glucocorticoid receptor = details: receptor affinity of dexamethasone = 100; cited from earlier work
# [6] = adults, ciclesonide via HFA-MDI with AeroChamber Plus; cited from earlier work
# [7] = Advair HFA; cited from earlier work
# [8] = des-CIC, Treatment A 160 μg with spacer / Treatment C 160 μg no spacer, ANOVA
# [9] = des-CIC, ciclesonide 80 μg with spacer vs 160 μg without spacer
# [10] = des-CIC, ciclesonide 160 μg with spacer vs 160 μg without spacer
structure (smiles),measurement,setting,value
CC(C)C(=O)OCC(=O)[C@@]12O[C@H](C3CCCCC3)O[C@@H]1C[C@H]1[C@@H]3CCC4=CC(=O)C=C[C@]4(C)[C@H]3[C@@H](O)C[C@@]12C [ciclesonide],systemic accumulation,[1],does not lead to systemic accumulation
same,time up to which serum concentrations were detectable,"[1]; parent ciclesonide, Treatment A and C (160 μg), LLOQ 0.01 μg/L",up to 3 h
same,time up to which serum concentrations were measurable,"[1]; parent ciclesonide, Treatment B (80 μg with spacer), LLOQ 0.01 μg/L",up to 1.5 h
same,time serum concentration detectable/observed after inhalation,[1],about 3 h
same,relation of AEs to study medication,[2]; assessed by investigator and sponsor,not related
same,tolerability,"[2]; ciclesonide 80 or 160 μg once daily, 7-day periods, with or without spacer",well tolerated
same,number of patients reporting AEs,"[2]; during the three treatment periods, 37 patients",24
same,clinically relevant abnormalities (laboratory values) / adverse drug reactions,[2]; whole study,No clinically relevant abnormalities or adverse drug reactions; also recorded: No clinically relevant abnormalities
same,change in lung function,"Pulmonary function tests; between screening, Day 7 of each treatment period, and study end",did not change to any relevant extent
same,FEV1 at study end,"Pulmonary function tests; mean ± SD, screening value 1.81 ± 0.44",1.76 ± 0.42 L
same,oral bioavailability,[3],< 1%
same,bound to plasma protein,[4],About 99%
same,lung deposition,[5],more than 50%
"C[C@]12C=CC(=O)C=C1CC[C@@H]1[C@@H]2[C@@H](O)C[C@@]2(C)[C@H]1C[C@H]1O[C@@H](C3CCCCC3)O[C@]12C(=O)CO [des-CIC, desisobutyryl-ciclesonide]",time up to which serum concentrations were detectable,"[1]; des-CIC, 80 μg ciclesonide (Treatment B), LLOQ 0.01 μg/L",up to 6 h
same,time up to which serum concentration-time profile curves were obtained,"[1]; des-CIC, 160 μg ciclesonide (Treatment A and Treatment C), LLOQ 0.01 μg/L",up to 12 h
same,AUCτ Ratio [% Ref],[1]; [8],127 % Ref
same,Cmax Ratio [% Ref],[1]; [8],155 % Ref
same,dose-normalized Cmax higher with spacer than without spacer,[1]; [9],63%
same,dose-normalized systemic exposure (AUCτ) higher with spacer than without spacer,[1]; [9],26%
same,dose-normalized Cmax higher with spacer than without spacer,[1]; [10],55%
same,dose-normalized systemic exposure (AUCτ) higher with spacer than without spacer,[1]; [10],27%
same,AUC,"[1]; human, serum, inhaled, 80 ug, Treatment B 80 μg CIC with spacer",0.316 ± 0.022 ng·h/mL
same,AUC,"[1]; human, serum, inhaled, 160 ug, Treatment C 160 μg CIC no spacer",0.542 ± 0.042 ng·h/mL
same,Tmax,"[1]; human, serum, inhaled, tmax, des-CIC, similar for all treatments",42 min
same,systemic accumulation,[1],does not lead to systemic accumulation
same,time serum concentration detectable/observed after inhalation,[1],up to 12 h
same,relative glucocorticoid receptor affinity,glucocorticoid receptor,1200
same,oral bioavailability,[3],less than 1%
same,bound to plasma protein,[4],About 99%
same,effect of spacer on PK,[6],did not influence the PK
C[C@@H]1C[C@H]2[C@@H]3CCC4=CC(=O)C=C[C@]4(C)[C@@]3(F)[C@@H](O)C[C@]2(C)[C@@]1(O)C(=O)CO [dexamethasone],relative glucocorticoid receptor affinity,glucocorticoid receptor,100
CCC(=O)O[C@]1(C(=O)SCF)[C@H](C)C[C@H]2[C@@H]3C[C@H](F)C4=CC(=O)C=C[C@]4(C)[C@@]3(F)[C@@H](O)C[C@@]21C [fluticasone propionate],increase of AUC0–last with spacer,[7],406%
same,increase of Cmax with spacer,[7],210%
